# Read-outs that look alike come from different tables or passages of the source.
# Key:
# [1] = system: H9 cells; experiment: Dye-mediated light kill of H9 cells (trypan blue); format: cell-based; conditions: Homo sapiens, read-out: Percent Viability
# Description: Photoinduced killing of H9 cells with Compound 1b as the mediator of photochemical toxicity were carried out according to the following protocol:
# Compound 1b was added to the H9 cells (5×10^5 /ml) in medium or 100% human plasma to give dye concentrations of 0, 25 and 100 μM (1 control, 2 duplicates of both non-azo dye samples). Two 2-ml aliquots of each of the duplicated dye samples was irradiated with 10J/cm^2 total energy of 450±35 nm wavelength light in a sealed 3-ml test tube. Immediately after irradiation, the cells were centrifuged at 450×g for 10 minutes, and the pellets resuspended in the original volume of fresh RPMI-1640+10% FCS+gentamycin. The cell suspensions were transferred to a 12-well TC plate and placed in a 37° C. 5% CO2 incubator. Cell viability counts (trypan blue) were carried out at 4, 24, 48, and 72 hours post irradiation. The results of these experiments are summarized in Tables 7 (medium) and 8 (100% human plasma).
# Photoinduced killing of H9 cells with Compound VII as the mediator of photochemical toxicity were carried out in 10% FCS medium according to the same general protocol using concentrations of the dye at 0, 5, 25 and 100 μM., and irradiating at 420±5 nm at 10J/cm^2 total energy.
# [2] = Tissue bonding of beef muscle strips with DiEd6Br and light; conditions: 0.1 millimolar
# Text: Bonding together of the overlapping surfaces of two strips of swine dura mater and of two thin slices of beef muscle with application of DiEd6Br in Cremophor EL as a carrier and irradiation with 420 # 5 nm light filtered from a xenon arc lamp were studied.
# Thin strips approximately 10 cm long, 1 cm wide, and 0.05-0.1 cm thick were sliced from beef steak obtained from a local meat market. Surfaces of the strips of two sample pairs were coated with a stock solution of DiEd6Br in Cremophor EL (0.1 millimolar concentration) and placed together to give approximately 2 cm overlap. One overlapping strip sample was irradiated for 24 hours with water-filtered (IR spectrum absorber) light from a 150 w xenon arc lamp. Beam diameter incident on the sample was approximately 3 cm. The other sample was wrapped in aluminum foil, placed alongside the irradiated sample, and served as dark control.
# [3] = system: Gramacidin D; experiment: Effects of 420 nm radiation on liposomal-bound Gramacidin D and DiEd6Br fluorescence; format: biochemical; conditions: 100 J/cm^2, 420 nm; for Tryptophan fluorescence ratio irradiated/unirradiated (IT/DT): 0 μM dye 91.23
# [4] = system: Human High Density Lipoprotein (HDL), Apoprotein I; experiment: Protein crosslinking with DiEd6Br: HDL; format: biochemical; conditions: 25.0 μM, 400 J/cm^2
# [5] = system: Human serum Albumen (HSA); experiment: Protein crosslinking with DiEd6Br: human serum albumen; format: biochemical; conditions: 30.0 μM, 791 J/cm^2
# [6] = H9, 4 h, no hν, 10% FCS medium, 4 hours
# [7] = H9, 4 h, no hν, 100% human plasma, 4 hours
# [8] = H9, 24 h, no hν, 10% FCS medium, 24 hours
# [9] = H9, 24 h, no hν, 100% human plasma, 24 hours
# [10] = H9, 48 h, no hν, 10% FCS medium, 48 hours
# [11] = H9, 48 h, no hν, 100% human plasma, 48 hours
# [12] = H9, 72 h, no hν, 10% FCS medium, 72 hours
# [13] = H9, 72 h, no hν, 100% human plasma, 72 hours
# [14] = H9, light or radiation study, 4 h, hν 10J/cm^2, 450±35 nm, 10% FCS medium, 4 hours
# [15] = H9, light or radiation study, 4 h, hν 10J/cm^2, 450±35 nm, 100% human plasma, 4 hours
# [16] = H9, light or radiation study, 24 h, hν 10J/cm^2, 450±35 nm, 10% FCS medium, 24 hours
# [17] = H9, light or radiation study, 24 h, hν 10J/cm^2, 450±35 nm, 100% human plasma, 24 hours
# [18] = H9, light or radiation study, 48 h, hν 10J/cm^2, 450±35 nm, 10% FCS medium, 48 hours
# [19] = H9, light or radiation study, 48 h, hν 10J/cm^2, 450±35 nm, 100% human plasma, 48 hours
# [20] = H9, light or radiation study, 72 h, hν 10J/cm^2, 450±35 nm, 10% FCS medium, 72 hours
# [21] = H9, light or radiation study, 72 h, hν 10J/cm^2, 450±35 nm, 100% human plasma, 72 hours
smiles,measurement,setting,value
"CCCCCCNc1ccc2c3c(cccc13)C(=O)N(CCCCCC)C2=O [Compound 1b, 4-(hexyl)amino-N-hexyl-1,8-naphthalimide]",viability at 25 µM,[1]; [6],96.9%
same,viability at 25 µM,[1]; [7],97.2%
same,viability at 100 µM,[1]; [6],94.6%
same,viability at 100 µM,[1]; [7],99.2%
same,viability at 25 µM,[1]; [8],94.8%
same,viability at 25 µM,[1]; [9],93.4%
same,viability at 100 µM,[1]; [8],94.6%
same,viability at 100 µM,[1]; [9],94.3%
same,viability at 25 µM,[1]; [10],90.5%
same,viability at 25 µM,[1]; [11],86.4%
same,viability at 100 µM,[1]; [10],91.3%
same,viability at 100 µM,[1]; [11],90.7%
same,viability at 25 µM,[1]; [12],91.4%
same,viability at 25 µM,[1]; [13],85%
same,viability at 100 µM,[1]; [12],85.1%
same,viability at 100 µM,[1]; [13],87.4%
same,viability at 25 µM,[1]; [14],62.8%
same,viability at 25 µM,[1]; [15],97.9%
same,viability at 100 µM,[1]; [14],87.2%
same,viability at 100 µM,[1]; [15],97.4%
same,viability at 25 µM,[1]; [16],8.4%
same,viability at 25 µM,[1]; [17],94.4%
same,viability at 100 µM,[1]; [16],52%
same,viability at 100 µM,[1]; [17],92.4%
same,viability at 25 µM,[1]; [18],10%
same,viability at 25 µM,[1]; [19],86.5%
same,viability at 100 µM,[1]; [18],64.8%
same,viability at 100 µM,[1]; [19],92.6%
same,viability at 25 µM,[1]; [20],30.6%
same,viability at 25 µM,[1]; [21],90.2%
same,viability at 100 µM,[1]; [20],71.4%
same,viability at 100 µM,[1]; [21],88.2%
CCCCCCN1C(=O)c2cccc3c(NCCNC(=O)CCCCC(=O)NCCNc4c(Br)cc5c6c(cccc46)C(=O)N(CCCCCC)C5=O)c(Br)cc(c23)C1=O [Compound XLIV],bonding of strips,[2]; dark control,separated under their own weight
same,bonding of strips,[2]; irradiated 24 hours,"discernable tactile finger pressure was felt when two hands were used to pull the irradiated strip apart, indicating bonding of the strip surface"
same,DiEd6Br fluorescence ratio irradiated/unirradiated (ID/DD),[3]; 10 μM,5.03%
same,Tryptophan fluorescence ratio irradiated/unirradiated (IT/DT),[3]; 10 μM,10.57%
same,DiEd6Br fluorescence ratio irradiated/unirradiated (ID/DD),[3]; 20 μM,9.24%
same,Tryptophan fluorescence ratio irradiated/unirradiated (IT/DT),[3]; 20 μM,10.77%
same,DiEd6Br fluorescence ratio irradiated/unirradiated (ID/DD),[3]; 50 μM,20.26%
same,Tryptophan fluorescence ratio irradiated/unirradiated (IT/DT),[3]; 50 μM,14.40%
same,Inferred Crosslinked Species,[4]; Cremophor EL,8 Apopro-
same,"Inferred Crosslinked Species, Gel mw",[4]; 8 Apoprotein I units,141 kD
same,heavier bands,[5],many ill separated heavier bands merging together near
same,Inferred Crosslinked Species,[5]; first species,2 HSA
same,Inferred Crosslinked Species,[5]; second species,3 HSA
same,Inferred Crosslinked Species,[5]; third species,3 HSA
same,"Inferred Crosslinked Species, Gel mw",[5]; 2 HSA units,120 kD
same,"Inferred Crosslinked Species, Gel mw","[5]; 3 HSA units (so in the source), third species",240 kD
same,"Inferred Crosslinked Species, Gel mw","[5]; 3 HSA units, second species",180 kD

# From patent US5235045A, “Non-azo naphthalimide dyes” (priority 1992, dated 1993)
